Reference: US11208400B2, “Substituted 6-(1H-pyrazol-1-yl)pyrimidin-4-amine derivatives and uses thereof” (Bayer Aktiengesellschaft, priority 2016, dated 2021)

What follows are compounds tested against T1, human Npt2a (Homo sapiens, UniProt Q06495) (assay: Npt2a activity cell based assay, membrane potential dye, CHO T-REx hNpt2a cells). Conditions: doxycycline-induced, depolarization by sodium phosphate influx, average or median values if tested more than once.
T1 construct: expressed in transfected cells
T1 sequence (Q06495 1-639): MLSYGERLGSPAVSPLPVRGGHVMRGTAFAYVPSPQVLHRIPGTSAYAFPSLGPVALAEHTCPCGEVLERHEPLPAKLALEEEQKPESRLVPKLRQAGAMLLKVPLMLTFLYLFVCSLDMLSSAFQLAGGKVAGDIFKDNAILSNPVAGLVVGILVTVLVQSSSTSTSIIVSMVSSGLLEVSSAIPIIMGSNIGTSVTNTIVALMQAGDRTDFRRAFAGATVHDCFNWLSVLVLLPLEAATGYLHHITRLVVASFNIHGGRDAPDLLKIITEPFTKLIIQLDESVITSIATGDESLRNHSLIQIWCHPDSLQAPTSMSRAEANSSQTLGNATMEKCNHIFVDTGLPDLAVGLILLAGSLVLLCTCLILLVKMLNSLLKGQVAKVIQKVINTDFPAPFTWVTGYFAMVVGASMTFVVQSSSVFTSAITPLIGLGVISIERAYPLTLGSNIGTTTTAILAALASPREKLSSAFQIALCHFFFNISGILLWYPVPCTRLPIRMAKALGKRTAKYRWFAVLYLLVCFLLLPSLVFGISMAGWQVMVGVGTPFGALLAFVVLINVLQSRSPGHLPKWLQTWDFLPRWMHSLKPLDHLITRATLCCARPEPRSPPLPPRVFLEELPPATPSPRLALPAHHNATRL
In short: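 Doxycycline-induced (0.5 μg/mL, 24 h) CHO T-REx cells were loaded with membrane potential dye in sodium-free NHE buffer (pH 7.4) and exposed to compound (50 μM–1 nM, 5 min, room temperature).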

Structure (SMILES) | IC50 [nM]
Cc1ccc(-c2nn(CC3CC3)c(Nc3cc(-n4nc(C)cc4C(F)F)ncn3)c2C)cn1 [Example 415, N-[1-(cyclopropylmethyl)-4-methyl-3-(6-methylpyridin-3-yl)-1H-pyrazol-5-yl]-6-[5-(difluoromethyl)-3-methyl-1H-pyrazol-1-yl]pyrimidin-4-amine] | 1150
COc1c(-c2ccc(C#N)cc2)nn(C)c1Nc1cc(-n2nc(C)cc2C(F)F)ncn1 [Example 411, 4-[5-({6-[5-(difluoromethyl)-3-methyl-1H-pyrazol-1-yl]pyrimidin-4-yl}amino)-4-methoxy-1-methyl-1H-pyrazol-3-yl]benzonitrile] | 150
Cc1cc(C(F)F)n(-c2cc(Nc3nn(CC(F)F)c(-c4ccc(C#N)cc4)c3C)ncn2)n1 [Example 251, 4-[1-(2,2-difluoroethyl)-3-({6-[5-(difluoromethyl)-3-methyl-1H-pyrazol-1-yl]pyrimidin-4-yl}amino)-4-methyl-1H-pyrazol-5-yl]benzonitrile] | 14
Cc1c(Nc2cc(-n3nc(C)c4ccncc43)ncn2)nn(C)c1-c1ccc(C#N)cc1 [Example 228, 4-(1,4-dimethyl-3-{[6-(3-methyl-1H-pyrazolo[3,4-c]pyridin-1-yl)pyrimidin-4-yl]amino}-1H-pyrazol-5-yl)benzonitrile] | 210
COc1c(C)nn(-c2cc(Nc3nn(C)c(-c4ccc(F)cn4)c3C)ncn2)c1C [Example 461, N-[5-(5-fluoropyridin-2-yl)-1,4-dimethyl-1H-pyrazol-3-yl]-6-(4-methoxy-3,5-dimethyl-1H-pyrazol-1-yl)pyrimidin-4-amine] | 170
COC(=O)Oc1c(C)nn(-c2cc(Nc3c(C)c(-c4ccc(F)cc4)nn3CC3CC3)ncn2)c1C [Example 518, 1-(6-{[1-(cyclopropylmethyl)-3-(4-fluorophenyl)-4-methyl-1H-pyrazol-5-yl]amino}pyrimidin-4-yl)-3,5-dimethyl-1H-pyrazol-4-yl methyl carbonate] | 14
CCc1c(Nc2cc(-n3nc(C)c(C#N)c3C)ncn2)nn(C)c1-c1ccc(F)cc1 [Example 112, 1-(6-{[4-ethyl-5-(4-fluorophenyl)-1-methyl-1H-pyrazol-3-yl]amino}pyrimidin-4-yl)-3,5-dimethyl-1H-pyrazole-4-carbonitrile] | 59.5
CCc1c(Nc2cc(-n3ccc(C)n3)ncn2)nn(C)c1-c1ccc(F)cc1 [Example 242, N-[4-ethyl-5-(4-fluorophenyl)-1-methyl-1H-pyrazol-3-yl]-6-(3-methyl-1H-pyrazol-1-yl)pyrimidin-4-amine] | 21
CCc1c(Nc2cc(-n3nc(C)c(C(C)(C)O)c3C)ncn2)nn(CC2CC2)c1-c1ccc(F)cc1 [Example 188, 2-[1-(6-{[1-(cyclopropylmethyl)-4-ethyl-5-(4-fluorophenyl)-1H-pyrazol-3-yl]amino}pyrimidin-4-yl)-3,5-dimethyl-1H-pyrazol-4-yl]propan-2-ol] | 710
COCCn1nc(-c2ccc(C(F)F)cc2)c(C)c1Nc1cc(-n2nc(C)c(Cl)c2C)ncn1 [Example 537, 6-(4-chloro-3,5-dimethyl-1H-pyrazol-1-yl)-N-{3-[4-(difluoromethyl)phenyl]-1-(2-methoxyethyl)-4-methyl-1H-pyrazol-5-yl}pyrimidin-4-amine] | 26
Cc1nn(-c2cc(Nc3c(C)c(-c4ccc(OC(F)F)cc4)nn3CC3CC3)ncn2)c(C)c1Cl [Example 398, 6-(4-chloro-3,5-dimethyl-1H-pyrazol-1-yl)-N-{1-(cyclopropylmethyl)-3-[4-(difluoromethoxy)phenyl]-4-methyl-1H-pyrazol-5-yl}pyrimidin-4-amine] | 25
CNc1ccc(-c2nn(CC3CC3)c(Nc3cc(-n4nc(C)c(C(F)(F)F)c4C)ncn3)c2C)cc1 [Example 488, N-{1-(cyclopropylmethyl)-4-methyl-3-[4-(methylamino)phenyl]-1H-pyrazol-5-yl}-6-[3,5-dimethyl-4-(trifluoromethyl)-1H-pyrazol-1-yl]pyrimidin-4-amine] | 65
CSc1c(C)nn(-c2cc(Nc3c(C)c(-c4ccc(F)cc4)nn3CC3CC3)ncn2)c1C [Example 399, N-[1-(cyclopropylmethyl)-3-(4-fluorophenyl)-4-methyl-1H-pyrazol-5-yl]-6-[3,5-dimethyl-4-(methylsulfanyl)-1H-pyrazol-1-yl]pyrimidin-4-amine] | 6
CCOC(=O)c1c(C)nn(-c2cc(Nc3nn(C)c(-c4ccc(Cl)cc4)c3C)ncn2)c1C [Example 353, ethyl 1-(6-{[5-(4-chlorophenyl)-1,4-dimethyl-1H-pyrazol-3-yl]amino}pyrimidin-4-yl)-3,5-dimethyl-1H-pyrazole-4-carboxylate] | 5
CCOC(C)c1c(C)nn(-c2cc(Nc3c(C)c(-c4ccc(C#N)cc4)nn3CC3CC3)ncn2)c1C (racemic) [Example 342, (±)-4-{1-(cyclopropylmethyl)-5-[(6-{4-[1-ethoxyethyl]-3,5-dimethyl-1H-pyrazol-1-yl}pyrimidin-4-yl)amino]-4-methyl-1H-pyrazol-3-yl}benzonitrile] | 2
Cc1nn(-c2cc(Nc3c(C)c(-c4ccc(F)cc4)nn3CC3CC3)ncn2)c2c1C(=O)CC2 [Example 394, 1-(6-{[1-(cyclopropylmethyl)-3-(4-fluorophenyl)-4-methyl-1H-pyrazol-5-yl]amino}pyrimidin-4-yl)-3-methyl-5,6-dihydrocyclopenta[c]pyrazol-4(1H)-one] | 71
CCOC(=O)c1c(C)nn(-c2cc(Nc3c(C)c(-c4ccc(F)cc4F)nn3CC3CC3)ncn2)c1C [Example 364, ethyl 1-(6-{[1-(cyclopropylmethyl)-3-(2,4-difluorophenyl)-4-methyl-1H-pyrazol-5-yl]amino}pyrimidin-4-yl)-3,5-dimethyl-1H-pyrazole-4-carboxylate] | 5
Cc1cc(C(F)F)n(-c2cc(Nc3c(C)c(-c4ccc(F)cc4)nn3C)ncn2)n1 [Example 70, 6-[5-(difluoromethyl)-3-methyl-1H-pyrazol-1-yl]-N-[3-(4-fluorophenyl)-1,4-dimethyl-1H-pyrazol-5-yl]pyrimidin-4-amine] | 36
Cc1cc(C)n(-c2cc(Nc3nn(C)c(-c4ccccc4)c3Cl)ncn2)n1 [Example 52, N-(4-chloro-1-methyl-5-phenyl-1H-pyrazol-3-yl)-6-(3,5-dimethyl-1H-pyrazol-1-yl)pyrimidin-4-amine] | 83
Cc1cc(C(F)F)n(-c2cc(Nc3c(C)c(-c4ccc(Cl)cc4)nn3CC3CC3)ncn2)n1 [Example 313, N-[3-(4-chlorophenyl)-1-(cyclopropylmethyl)-4-methyl-1H-pyrazol-5-yl]-6-[5-(difluoromethyl)-3-methyl-1H-pyrazol-1-yl]pyrimidin-4-amine] | 36
CCc1c(Nc2cc(-n3nc(C)c(Br)c3C)ncn2)nn(C)c1-c1ccc(F)cc1 [Example 191, 6-(4-bromo-3,5-dimethyl-1H-pyrazol-1-yl)-N-[4-ethyl-5-(4-fluorophenyl)-1-methyl-1H-pyrazol-3-yl]pyrimidin-4-amine] | 3
Cc1nn(-c2cc(Nc3c(C)c(-c4ccc(C#N)cc4)nn3CC3CC3)ncn2)c(C)c1C(F)(F)F [Example 373, 4-[1-(cyclopropylmethyl)-5-({6-[3,5-dimethyl-4-(trifluoromethyl)-1H-pyrazol-1-yl]pyrimidin-4-yl}amino)-4-methyl-1H-pyrazol-3-yl]benzonitrile] | 5
Cc1nn(-c2cc(Nc3c(C)c(-c4ccc(F)cc4)nn3C)ncn2)c(C)c1Cl [Example 68, 6-(4-chloro-3,5-dimethyl-1H-pyrazol-1-yl)-N-[3-(4-fluorophenyl)-1,4-dimethyl-1H-pyrazol-5-yl]pyrimidin-4-amine] | 31.5
CCOC(=O)c1c(C)nn(-c2cc(Nc3n[nH]c(-c4ccccc4)c3Cl)ncn2)c1C [Example 51, ethyl 1-{6-[(4-chloro-5-phenyl-1H-pyrazol-3-yl)amino]pyrimidin-4-yl}-3,5-dimethyl-1H-pyrazole-4-carboxylate] | 100
CCc1c(Nc2cc(-n3cccn3)ncn2)nn(C)c1-c1ccc(F)cc1 [Example 245, N-[4-ethyl-5-(4-fluorophenyl)-1-methyl-1H-pyrazol-3-yl]-6-(1H-pyrazol-1-yl)pyrimidin-4-amine] | 660
Cc1nn(-c2cc(Nc3nn(C)c(-c4ccc(F)cc4)c3C3CC3)ncn2)c(C)c1Cl [Example 42, 6-(4-chloro-3,5-dimethyl-1H-pyrazol-1-yl)-N-[4-cyclopropyl-5-(4-fluorophenyl)-1-methyl-1H-pyrazol-3-yl]pyrimidin-4-amine] | 7.67
CCOC(=O)c1c(C)nn(-c2cc(Nc3nn(CC(F)F)c(-c4ccc(F)cc4)c3CC)ncn2)c1C [Example 177, ethyl 1-(6-{[1-(2,2-difluoroethyl)-4-ethyl-5-(4-fluorophenyl)-1H-pyrazol-3-yl]amino}pyrimidin-4-yl)-3,5-dimethyl-1H-pyrazole-4-carboxylate] | 41
Cc1nn(-c2cc(Nc3c(C)c(-c4ccncc4)nn3CC3CC3)ncn2)c(C)c1C(F)(F)F [Example 384, N-[1-(cyclopropylmethyl)-4-methyl-3-(pyridin-4-yl)-1H-pyrazol-5-yl]-6-[3,5-dimethyl-4-(trifluoromethyl)-1H-pyrazol-1-yl]pyrimidin-4-amine] | 30
